{"source": "paper PMC11632778", "about": "“Adaptive Synthesis, Supramolecular Behavior, and Biological Properties of Amphiphilic Carbosilane-Phosphonium Dendrons with Tunable Structure” (Biomacromolecules, 2024)", "key": {"[1]": {"test_system": "S. aureus MRSA—clinical isolate C1926", "assay": "Microdilution broth MIC", "assay_type": "cell-based", "details": "Staphylococcus aureus, 24 h"}, "[2]": {"assay": "Dynamic light scattering (DLS/MADLS) of micelles in physiological solution", "assay_type": "physicochemical", "method": "The size of micelles and micellar aggregates was estimated by the dynamic light scattering (DLS) method using NanoBrook OMNI ZetaPALS (Brookhaven Instruments, USA) with a detection angle 90° and 640 nm laser. The presented diameters are mean values from the intensity-weighted size distribution. The composition of the samples was as follows: dendron (1.0 mM) and NaCl (0.9%) in deionized water. The solutions were sonicated for 30 min, filtered through 0.45 μm Nylon syringe filters (Avantor, USA), placed in standard polystyrene cuvettes (BI-SCP, Brookhaven Instruments), and stored at 4 °C. All measurements were conducted at 25 °C. Measurement time was set to 5 min, and each measurement was repeated 5 times. The analysis of data was performed using Brookhaven Instruments software Particle Solutions v3.6.07136.\nMADLS and size dependence on concentration and pH were measured on Zetasizer Ultra Red (Malvern Panalytical, UK) equipped with a 632.8 nm laser, applying detection angles 12.78°, 90°, and 174.7° in the case of MADLS measurements and 12.78° for size dependence measurements. MADLS and concentration dependence were measured in DTS0012 polystyrene cuvettes (Malvern Panalytical, UK); pH dependence was studied by acidobasic titration in DTS1070 folded capillary Zeta cell, using MPT-3 Multipurpose Titrator and DEG0003 Auto Degasser (all Malvern Panalytical, UK). The concentration dependence measurement started at 1.0 mM and the samples were diluted 2-fold until the minimum concentration 0.06 mM. For each concentration, the measurement was repeated 3 times giving 15 measurements in total. The pH dependence measurement started at pH 12; the titration was performed with a step of 2 and at each step, the measurement was repeated 3 times, giving 18 measurements in total. Malvern Panalytical software ZS Xplorer version 3.3.1.5 was used for the analysis of data."}, "[3]": {"test_system": "anti-miR-21 oligo(2′-O-methylribonucleotide)", "assay": "DLS of dendriplexes with anti-miR-21 oligonucleotide", "assay_type": "physicochemical", "details": "for mean diameter of dendriplex: 0.9% NaCl", "method": "Dendriplexes were characterized by DLS using Zetasizer Nano-S (Malvern Panalytical, UK) equipped with a 632.8 nm laser, applying detection angle 173°. Mean diameters from the intensity-weighted size distribution are given. Average results from three consecutive sets of measurements generated by Malvern Zetasizer Software version 7.13 are presented.\nAmphiphilic dendrons (1.5–73 μM) were mixed with the anti-miR-21:5′-m([…]) (500 nM) in 0.9% NaCl solution in milli-Q water. The dendrons’ concentrations were chosen to attain the charge ratio (CR, the ratio of cations over anions in the sample) of 1.2, 2.5, 5, 10, or 20. The samples were incubated for 15 min at rt prior to measurements."}, "S. aureus CCM 4516": {"test_system": "S. aureus CCM 4516", "assay": "Microdilution broth MIC", "assay_type": "cell-based", "details": "Staphylococcus aureus, CCM4516, 24 h", "method": "(§1) In vitro antibacterial activity of the prepared amp-DDNs (DnP6-1C12, DnP3-1C12, DnP3-2C12, and DnP3-2C18) was tested on a panel of four G+ (Staphylococcus aureus CCM 4516, methicillin-resistant S. aureus clinical isolate C1923, Staphylococcus epidermidis clinical isolate C1936, and vancomycin-resistant Enterococcus faecium clinical isolate S2484) and four G-bacterial strains (Escherichia coli K12, CCM 7929, E. coli clinical isolate A1235, extended-spectrum β-lactamase-producing (ESBL+) Klebsiella pneumoniae clinical isolate C1914, and multiresistant Pseudomonas aeruginosa clinical isolate A1245). CCM collection strains were obtained from the Czech Collection of Microorganisms. All clinical isolates were obtained during routine procedures in the clinical laboratory at the University Hospital Hradec Králové. All strains were stored at −70 °C in the Cryobank according to the manufacturer’s instructions. Subsequently, when needed, each bacterial strain was inoculated and cultivated on Mueller–Hinton agar (HiMedia, Cadersky-Envitek, Prague, Czech Republic).\n(§2) The antibacterial susceptibility was determined by a microdilution broth method according to standard M07-A10,[55] and the optimized protocol has been published previously.[56],[57] Briefly, Mueller–Hinton broth (MHB) adjusted to pH 7.4 (±0.2) was used as the test medium. […] The wells of the microdilution tray contained 200 μL of the MHB with 2-fold serial dilutions of the compounds and were inoculated with 10 μL of the bacterial suspension. The bacterial suspensions were controlled densitometrically to reach 1.5 × 10^8 viable CFU per 1 mL. The minimum inhibitory concentration (MIC) values, defined as 95% inhibition of bacterial growth, were determined after 24 h of incubation at 35 °C ± 1 °C."}, "E. coli K12, CCM 7929": {"test_system": "E. coli K12, CCM 7929", "assay": "Microdilution broth MIC", "assay_type": "cell-based", "details": "Escherichia coli, CCM7929, 24 h", "method": "as §1, §2"}, "[4]": {"test_system": "S. epidermidis—clinical isolate C1936", "assay": "Microdilution broth MIC", "assay_type": "cell-based", "details": "Staphylococcus epidermidis, 24 h", "method": "as §1, §2"}, "[5]": {"test_system": "E. coli—clinical isolate A1235", "assay": "Microdilution broth MIC", "assay_type": "cell-based", "details": "Escherichia coli, 24 h", "method": "as §1, §2"}, "[6]": {"test_system": "K. pneumoniae ESBL+—clinical isolate C1914", "assay": "Microdilution broth MIC", "assay_type": "cell-based", "details": "Klebsiella pneumoniae, 24 h", "method": "as §1, §2"}, "[7]": {"test_system": "P. aeruginosa MR—clinical isolate A1245", "assay": "Microdilution broth MIC", "assay_type": "cell-based", "details": "Pseudomonas aeruginosa, 24 h", "method": "as §1, §2"}, "[8]": {"test_system": "E. faecium VRE—clinical isolate S2484", "assay": "Microdilution broth MIC", "assay_type": "cell-based", "details": "Enterococcus faecium, 24 h", "method": "as §1, §2"}, "[9]": {"parameters": "method as in doi:10.1016/j.colsurfa.2004.10.066", "details": "standard cationic surfactant; cited from earlier work"}}, "data": [{"smiles": "CCCCCCCCCCCCCCCCCCNC(=O)c1cc(OCCC[Si](CCCSCC(=O)NCCC[P+](c2ccccc2)(c2ccccc2)c2ccccc2)(CCCSCC(=O)NCCC[P+](c2ccccc2)(c2ccccc2)c2ccccc2)CCCSCC(=O)NCCC[P+](c2ccccc2)(c2ccccc2)c2ccccc2)cc(C(=O)NCCCCCCCCCCCCCCCCCC)c1", "note": "[DnP3-2C18]", "values": [{"measurement": "MIC", "setting": "[1]", "value": "> 12.5", "unit": "µM"}, {"measurement": "PDI", "setting": "[2]; 1.0 mM dendron, 0.9% NaCl", "value": "≈ 0.2"}, {"measurement": "mean size (DLS, intensity-weighted)", "setting": "[2]; 1.0 mM dendron, 0.9% NaCl, 25 °C, start of testing period", "value": 14, "unit": "nm"}, {"measurement": "mean size (DLS, intensity-weighted)", "setting": "[2]; 1.0 mM dendron, 0.9% NaCl, after 75 day testing period, stored at 4 °C", "value": 26, "unit": "nm"}, {"measurement": "mean size of the second population (MADLS)", "setting": "[2]; aggregates", "value": 80, "unit": "nm"}, {"measurement": "mean diameter of the smaller particles (MADLS)", "setting": "[2]; isolated micelles", "value": 11.8, "unit": "nm"}, {"measurement": "PI of dendriplex", "setting": "[3]; CR 1.2", "value": 0.12}, {"measurement": "mean diameter of dendriplex", "setting": "[3]; CR 1.2, anti-miR-21 500 nM", "value": 0.20, "unit": "μm"}, {"measurement": "PI of dendriplex", "setting": "[3]; CR 2.5", "value": 0.2}, {"measurement": "mean diameter of dendriplex", "setting": "[3]; CR 2.5, anti-miR-21 500 nM", "value": 0.9, "unit": "μm"}, {"measurement": "PI of dendriplex", "setting": "[3]; CR 5", "value": 0.3}, {"measurement": "mean diameter of dendriplex", "setting": "[3]; CR 5, anti-miR-21 500 nM", "value": "> 1", "unit": "μm"}, {"measurement": "PI of dendriplex", "setting": "[3]; CR 10", "value": 0.23}, {"measurement": "mean diameter of dendriplex", "setting": "[3]; CR 10, anti-miR-21 500 nM", "value": 0.22, "unit": "μm"}, {"measurement": "PI of dendriplex", "setting": "[3]; CR 20", "value": 0.29}, {"measurement": "mean diameter of dendriplex", "setting": "[3]; CR 20, anti-miR-21 500 nM", "value": 0.17, "unit": "μm"}, {"measurement": "MIC", "setting": "S. aureus CCM 4516", "value": "> 12.5", "unit": "µM"}, {"measurement": "MIC", "setting": "E. coli K12, CCM 7929", "value": "> 12.5", "unit": "µM"}, {"measurement": "MIC", "setting": "[4]", "value": "> 12.5", "unit": "µM"}, {"measurement": "MIC", "setting": "[5]", "value": "> 12.5", "unit": "µM"}, {"measurement": "MIC", "setting": "[6]", "value": "> 12.5", "unit": "µM"}, {"measurement": "MIC", "setting": "[7]", "value": "> 12.5", "unit": "µM"}, {"measurement": "MIC", "setting": "[8]", "value": "> 12.5", "unit": "µM"}]}, {"smiles": "CCCCCCCCCCCCNC(=O)c1cc(OCCC[Si](CCCSCC(=O)NCCC[P+](c2ccccc2)(c2ccccc2)c2ccccc2)(CCCSCC(=O)NCCC[P+](c2ccccc2)(c2ccccc2)c2ccccc2)CCCSCC(=O)NCCC[P+](c2ccccc2)(c2ccccc2)c2ccccc2)cc(OCCC[Si](CCCSCC(=O)NCCC[P+](c2ccccc2)(c2ccccc2)c2ccccc2)(CCCSCC(=O)NCCC[P+](c2ccccc2)(c2ccccc2)c2ccccc2)CCCSCC(=O)NCCC[P+](c2ccccc2)(c2ccccc2)c2ccccc2)c1", "note": "[DnP6-1C12]", "values": [{"measurement": "MIC", "setting": "[1]", "value": 6.25, "unit": "µM"}, {"measurement": "PI of dendriplex", "setting": "[3]; CR 1.2", "value": 0.08}, {"measurement": "mean diameter of dendriplex", "setting": "[3]; CR 1.2, anti-miR-21 500 nM", "value": 0.22, "unit": "μm"}, {"measurement": "PI of dendriplex", "setting": "[3]; CR 2.5", "value": 0.2}, {"measurement": "mean diameter of dendriplex", "setting": "[3]; CR 2.5, anti-miR-21 500 nM", "value": 0.8, "unit": "μm"}, {"measurement": "PI of dendriplex", "setting": "[3]; CR 5", "value": 0.10}, {"measurement": "mean diameter of dendriplex", "setting": "[3]; CR 5, anti-miR-21 500 nM", "value": 0.8, "unit": "μm"}, {"measurement": "PI of dendriplex", "setting": "[3]; CR 10", "value": 0.05}, {"measurement": "mean diameter of dendriplex", "setting": "[3]; CR 10, anti-miR-21 500 nM", "value": 0.8, "unit": "μm"}, {"measurement": "MIC", "setting": "S. aureus CCM 4516", "value": 6.25, "unit": "µM"}, {"measurement": "MIC", "setting": "E. coli K12, CCM 7929", "value": 6.25, "unit": "µM"}, {"measurement": "MIC", "setting": "[4]", "value": 1.56, "unit": "µM"}, {"measurement": "MIC", "setting": "[5]", "value": 6.25, "unit": "µM"}, {"measurement": "MIC", "setting": "[6]", "value": 12.5, "unit": "µM"}, {"measurement": "MIC", "setting": "[7]", "value": "≥ 12.5", "unit": "µM"}, {"measurement": "MIC", "setting": "[8]", "value": 3.13, "unit": "µM"}]}, {"smiles": "CCCCCCCCCCCCCCCCCCNC(=O)c1cc(OCCC[Si](CCCSCC(=O)NCCC[P+](c2ccccc2)(c2ccccc2)c2ccccc2)(CCCSCC(=O)NCCC[P+](c2ccccc2)(c2ccccc2)c2ccccc2)CCCSCC(=O)NCCC[P+](c2ccccc2)(c2ccccc2)c2ccccc2)cc(OCCC[Si](CCCSCC(=O)NCCC[P+](c2ccccc2)(c2ccccc2)c2ccccc2)(CCCSCC(=O)NCCC[P+](c2ccccc2)(c2ccccc2)c2ccccc2)CCCSCC(=O)NCCC[P+](c2ccccc2)(c2ccccc2)c2ccccc2)c1", "note": "[DnP6-1C18]", "values": [{"measurement": "MIC", "setting": "[1]", "value": 6.25, "unit": "µM"}, {"measurement": "PI of dendriplex", "setting": "[3]; CR 1.2", "value": 0.05}, {"measurement": "mean diameter of dendriplex", "setting": "[3]; CR 1.2, anti-miR-21 500 nM", "value": 0.18, "unit": "μm"}, {"measurement": "PI of dendriplex", "setting": "[3]; CR 2.5", "value": 0.3}, {"measurement": "mean diameter of dendriplex", "setting": "[3]; CR 2.5, anti-miR-21 500 nM", "value": "> 1", "unit": "μm"}, {"measurement": "PI of dendriplex", "setting": "[3]; CR 5", "value": 0.3}, {"measurement": "mean diameter of dendriplex", "setting": "[3]; CR 5, anti-miR-21 500 nM", "value": "> 1", "unit": "μm"}, {"measurement": "PI of dendriplex", "setting": "[3]; CR 10", "value": 0.3}, {"measurement": "mean diameter of dendriplex", "setting": "[3]; CR 10, anti-miR-21 500 nM", "value": "> 1", "unit": "μm"}, {"measurement": "MIC", "setting": "S. aureus CCM 4516", "value": 6.25, "unit": "µM"}, {"measurement": "MIC", "setting": "E. coli K12, CCM 7929", "value": "> 6.25", "unit": "µM"}, {"measurement": "MIC", "setting": "[4]", "value": 6.25, "unit": "µM"}, {"measurement": "MIC", "setting": "[5]", "value": "> 6.25", "unit": "µM"}, {"measurement": "MIC", "setting": "[6]", "value": "> 6.25", "unit": "µM"}, {"measurement": "MIC", "setting": "[7]", "value": "> 6.25", "unit": "µM"}, {"measurement": "MIC", "setting": "[8]", "value": 6.25, "unit": "µM"}]}, {"smiles": "CCCCCCCCCCCCCCCC[N+](C)(C)C", "note": "[cetyltrimethylammonium bromide]", "values": [{"measurement": "CMC", "setting": "[9]", "value": "around 1 mM"}]}]}
